These results are taken from US20160175293A1, “PIM KINASE INHIBITOR COMBINATIONS” (priority 2013, published 2016).

One data set has as its system MV-4-11. Description: Cell Titer Glo viability, dose matrix, Chalice analysis. The class given is cell-based. The protocol: (§1) Compound stock was freshly prepared in the appropriate culture medium and manually added to the plates by electronic multichannel pipette in three replicates. […] The viability of cells was assessed after 72 hours of treatment by quantification of cellular ATP levels via Cell Titer Glo (Promega #G7571) according to the manufacturer's protocol. Plates were read on a luminescence plate reader (Victor X4, Perkin Elmer).
(§2) Each compound is diluted threefold times and the dashes below represent the threefold dilution between each number.
(In general: ATP-based viability assays read luminescence as a measure of living cells.)

In a further data set the test system is MOLM-13. Described as above. It is filed as cell-based. On the procedure: as §1, §2
The subject of a further data set is KMS-12-BM. Description: mouse xenograft model KMS-12-BM. The class given is in vivo. The following applies: single agent Compound B.

For the compound `C[C@@H]1C[C@H](N)C[C@H](c2ccncc2NC(=O)c2ccc(F)c(-c3c(F)cccc3F)n2)C1` [Compound A, N-(4-((1R,3S,5S)-3-amino-5-methylcyclohexyl)pyridin-3-yl)-6-(2,6-difluorophenyl)-5-fluoropicolinamide], the “PK exposure at steady state” value (Day 14 (steady state), 200 mg to 350 mg dose) is “plateau”. The “PK exposure (Cmax AUC) dose proportionality” value (dose range of 70 mg-250 mg, Day 1) is reported as “over proportional”. Also, the “increase of exposure at 500 mg compared to 200 mg to 350 mg dose” value (steady state) is “about 2 fold”.

In the case of `CO[C@@H]1[C@H](N(C)C(=O)c2ccccc2)C[C@H]2O[C@]1(C)n1c3ccccc3c3c4c(c5c6ccccc6n2c5c31)C(=O)NC4` [PKC412, midostaurin], the single agent activity result in the data set on MV-4-11 and in the data set with MOLM-13 was “active” throughout.

On to `Cc1nc(NC(=O)N2CCC[C@H]2C(N)=O)sc1-c1ccnc(C(C)(C)C(F)(F)F)c1` [Compound B, (S)-pyrrolidine-1,2-dicarboxylic acid 2-amide 1-({4-methyl-5-[2-(2,2,2-trifluoro-1,1-dimethyl-ethyl)-pyridin-4-yl]-thiazol-2-yl}-amide)], for which the anti-tumor activity result in the data set on KMS-12-BM is “did not demonstrate in anti-tumor activity”.
